According to patent publication US20210113529A1, “MEDICINE FOR PREVENTING OR TREATING OPHTHALMIC DISEASE ASSOCIATED WITH ENHANCED INTRAOCULAR NEOVASCULARIZATION AND/OR INTRAOCULAR VASCULAR PERMEABILITY” (KYOTO UNIVERSITY, priority 2018, published 2021):

Experiments:
[1] = system: VEGF; experiment: VEGF production in CNV model (western blot of choroid-retinal pigment epithelium); assay type: in vivo, mice; conditions: 0.3 mg/kg orally once daily, 5 days after laser irradiation
Method: A CNV model generated by the same method as in Example 1 was orally administered Compound 1 suspended in a vehicle (0.5% MC solution) at a dose of 0.3 mg/kg (in terms of free form) once daily from the day before laser irradiation to the day of sampling. Controls were an untreated group (normal group) and a group administered only the vehicle (vehicle group). Experiments were performed using 6 mice in the Compound 1 administration group, 8 mice in the normal group, and 7 mice in the vehicle group. After 5 days from the laser irradiation, the mice were euthanized by cervical dislocation, and the eyeball was extirpated. Choroid-retinal pigment epithelium was isolated from the eyeball, and the expression amount of VEGF protein was measured by a western blot method using an anti-VEGF antibody (manufactured by Merck Millipore). In addition, the results of calculation of the expression amount of VEGF relative to that of β-actin with reference to the normal group are shown in FIG. 5(b).

[2] = target: S1P1 receptor (Homo sapiens, UniProt P21453); conditions: GTP[γ35S] binding assay; report PLoS One, 2014, 9(10), e110819; read-out: EC50 for S1P1 receptor agonist activity; cited from earlier work
[3] = target: S1P3 receptor (Homo sapiens, UniProt Q99500); conditions: GTP[γ35S] binding assay; report PLoS One, 2014; cited from earlier work
[4] = system: retinal vein occlusion (RVO) model; experiment: Retinal vein occlusion (RVO) model, oral: thickness of retinal inner nuclear layer (INL); assay type: in vivo, mice; conditions: dose of at least 0.03 mg/kg or more, 12 hours before and immediately after laser irradiation, 24 hours after irradiation
Method: (§1) Eight-week-old mice (Japan SLC, Inc., ddy strain) were anesthetized by intramuscularly administering 10 mL/kg of a mixed anesthetic solution diluted so as to contain ketamine (120 mg/kg) and xylazine (6 mg/kg). After that, 0.15 mL of rose bengal (20 mg/kg; WAKO) was administered into the tail vein, and a vein three head systems away from the optic nerve head of the right eye of the mice was irradiated with a laser to occlude a retinal vein. For the occlusion, the laser irradiation was performed 10 times to 15 times per vein. For the laser irradiation, an attachment of a fundus photography apparatus Micron 4 (Phoenix Research Laboratories, Inc., Pleasanton, Calif., USA) was used (wavelength: 532 nm, spot size: 50 μm, irradiation time: 5,000 ms, laser output: 50 mW). Three veins were occluded per eye, and it was confirmed with photographs of the fundus that the laser-irradiated veins had been completely occluded. […]
(§2) After 24 hours from the laser irradiation, the mice were euthanized by cervical dislocation, the eyeball was extirpated, and histological evaluation was performed by a hematoxylin-eosin staining method. In addition, the thickness of the retinal inner nuclear layer (INL) was measured at intervals of 240 μm on both sides, i.e., ear side and nose side from the center of the optic nerve head. […]

[5] = target: S1P5 receptor (Homo sapiens, UniProt Q9H228); conditions: GTP[γ35S] binding assay; report PLoS One, 2014, 9(10), e110819; read-out: EC50 for S1P5 receptor agonist activity; cited from earlier work
[6] = system: human retinal vascular endothelial cells (HRMECs); experiment: Permeability of human retinal vascular endothelial cells (Transwell, FITC-dextran); assay type: cell-based; conditions: HRMECs in Transwell; 0.3 nM, 3 nM or 30 nM; 60 minutes pre-culture, 60 minutes after FITC-dextran (40 kDa)
Method: The upper chamber of Transwell (diameter: 6.5 mm, pore size: 0.4 μm: Corning Incorporated) coated with collagen and fibronectin was seeded with human retinal vascular endothelial cells (HRMECs) (Cell Systems) at a cell density of 5×10^4 cells/well, and the cells were cultured in Endothelial Cell Growth Medium MV 2 (PromoCell GmbH) under a 5% CO2 atmosphere at 37° C. for 6 days. Then, to the upper chamber and lower chamber of the Transwell, Compound 1 at a final concentration of 0 nM, 0.3 nM, 3 nM, or 30 nM, which had been prepared using 0.001% dimethyl sulfoxide-containing Endothelial Cell Growth Medium MV 2 as a vehicle, was added, and culture was continued. A well to which only the vehicle was added was used as a control. After 60 minutes of culture, 1 mg/mL of fluorescein isothiocyanate (FITC)-dextran (40 kDa: Sigma-Aldrich) was added to the upper chamber of the Transwell, and 60 minutes later, the fluorescence intensity of the medium in the lower chamber was measured to measure the amount of FITC-dextran permeating the lower chamber.

[7] = system: retinal vein occlusion (RVO) model; experiment: RVO model, intravitreal administration: thickness of INL; assay type: in vivo, mice; conditions: 0.8 ng, 8 ng or 80 ng per eye immediately after laser irradiation, 1 day after irradiation
Method: as §1
as §2, with “1 day” for “24 hours”

Chain of S1P5 receptor (Q9H228 whole entry): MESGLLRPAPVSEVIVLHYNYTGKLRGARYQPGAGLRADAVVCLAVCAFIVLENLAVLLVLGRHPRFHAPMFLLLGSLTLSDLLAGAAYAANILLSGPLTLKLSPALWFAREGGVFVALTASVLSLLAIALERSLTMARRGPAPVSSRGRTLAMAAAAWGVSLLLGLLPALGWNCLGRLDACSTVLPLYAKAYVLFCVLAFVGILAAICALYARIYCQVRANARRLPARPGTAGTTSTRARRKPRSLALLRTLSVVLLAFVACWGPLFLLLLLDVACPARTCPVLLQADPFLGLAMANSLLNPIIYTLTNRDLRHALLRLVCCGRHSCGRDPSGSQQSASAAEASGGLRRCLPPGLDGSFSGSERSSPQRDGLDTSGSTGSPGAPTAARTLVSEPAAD
Chain of S1P1 receptor (P21453 whole entry): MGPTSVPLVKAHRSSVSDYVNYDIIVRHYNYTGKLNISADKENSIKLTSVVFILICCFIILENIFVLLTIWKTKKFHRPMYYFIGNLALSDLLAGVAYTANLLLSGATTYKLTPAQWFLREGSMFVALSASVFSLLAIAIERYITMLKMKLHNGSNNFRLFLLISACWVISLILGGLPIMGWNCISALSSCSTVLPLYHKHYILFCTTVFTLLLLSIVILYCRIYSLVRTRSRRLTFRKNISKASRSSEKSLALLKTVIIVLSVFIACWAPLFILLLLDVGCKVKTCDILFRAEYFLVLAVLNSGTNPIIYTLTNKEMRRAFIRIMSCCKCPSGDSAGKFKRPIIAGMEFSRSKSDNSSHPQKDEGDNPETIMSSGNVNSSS
Chain of S1P3 receptor (Q99500 whole entry): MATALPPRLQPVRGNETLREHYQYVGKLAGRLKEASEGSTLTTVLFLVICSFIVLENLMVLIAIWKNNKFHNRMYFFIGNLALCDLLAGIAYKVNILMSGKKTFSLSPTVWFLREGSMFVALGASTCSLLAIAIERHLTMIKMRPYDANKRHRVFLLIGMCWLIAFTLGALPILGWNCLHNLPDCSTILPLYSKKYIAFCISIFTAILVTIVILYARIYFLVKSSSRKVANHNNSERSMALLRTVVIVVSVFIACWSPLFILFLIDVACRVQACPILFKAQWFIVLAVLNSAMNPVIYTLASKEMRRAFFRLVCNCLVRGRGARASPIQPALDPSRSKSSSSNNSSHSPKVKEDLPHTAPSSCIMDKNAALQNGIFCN

C[C@H](Oc1ccc(-c2nc(-c3ccc4[nH]cnc4c3)no2)cc1C(F)(F)F)C(F)(F)F.Cl [Compound 1, 5-{5-[3-(trifluoromethyl)-4-{[(2S)-1,1,1-trifluoropropan-2-yl]oxy}phenyl]-1,2,4-oxadiazol-3-yl}-1H-benzimidazole monohydrochloride]
expression of VEGF relative to β-actin, as compared to the vehicle group [1]: significantly reduced the expression of VEGF | EC50 [2]: 7.4 nM | EC50 for S1P3 receptor agonist activity as compared to that for the S1P1 receptor [3]: ≥ 100 fold | thickening of the INL (retinal edema) [4]: ameliorated the thickening of the INL | EC50 [5]: 7.5 nM | amount of FITC-dextran permeating the lower chamber (fluorescence intensity) [6]: significantly decreased the amount of FITC-dextran permeating the lower chamber | thickening of the INL (retinal edema) [7]: ameliorated the thickening of the INL
